# How the values were obtained:
# Conditions in all cases: treatment: drug + dasatinib (fixed dose, not stated); 5 days
# [1] = system: SN12C; assay: minimum viability across doses, drug + dasatinib, relative to DMSO (fraction); higher = less growth inhibition
# Experimental: (§1)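 Primary HTS combination arm: 8 RCC cell lines treated with 8 doses (up to 10 uM) of each library drug plus a fixed dose of dasatinib (dose not stated) for 5 days; viability read by CellTiter-Glo and normalised to DMSO. GI50 was fitted with XLfit, AUC is the area under the dose-response curve, and minimum viability is the lowest fraction of DMSO viability across doses.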
# [2] = system: CAKI-1; assay: as above
# Experimental: as §1
# [3] = system: UO-31; assay: as above
# Experimental: as §1
# [4] = system: 769-P; assay: as above
# Experimental: as §1
# [5] = system: 786-O; assay: as above
# Experimental: as §1
# [6] = system: ACHN; assay: as above
# Experimental: as §1
# [7] = system: TK-10; assay: as above
# Experimental: as §1
# [8] = system: A498; assay: as above
# Experimental: as §1
# [9] = system: SN12C; assay: GI50 of drug in presence of dasatinib; higher = less potent
# Experimental: as §1
# [10] = system: CAKI-1; assay: as above
# Experimental: as §1
# [11] = system: UO-31; assay: as above
# Experimental: as §1
# [12] = system: 769-P; assay: as above
# Experimental: as §1
# [13] = system: 786-O; assay: as above
# Experimental: as §1
# [14] = system: ACHN; assay: as above
# Experimental: as §1
# [15] = system: TK-10; assay: as above
# Experimental: as §1
# [16] = system: A498; assay: as above
# Experimental: as §1
# [17] = system: SN12C; assay: AUC of dose-response viability curve, drug + dasatinib, normalised to DMSO (arbitrary (AUC of normalised viability)); higher = less growth inhibition
# Experimental: as §1
# [18] = system: CAKI-1; assay: as above
# Experimental: as §1
# [19] = system: UO-31; assay: as above
# Experimental: as §1
# [20] = system: 769-P; assay: as above
# Experimental: as §1
# [21] = system: 786-O; assay: as above
# Experimental: as §1
# [22] = system: ACHN; assay: as above
# Experimental: as §1
# [23] = system: TK-10; assay: as above
# Experimental: as §1
# [24] = system: A498; assay: as above
# Experimental: as §1
SMILES,minimum viability across doses [1],minimum viability across doses [2],minimum viability across doses [3],minimum viability across doses [4],minimum viability across doses [5],minimum viability across doses [6],minimum viability across doses [7],minimum viability across doses [8],GI50 of drug [9],GI50 of drug [10],GI50 of drug [11],GI50 of drug [12],GI50 of drug [13],GI50 of drug [14],GI50 of drug [15],GI50 of drug [16],AUC of dose-response viability curve [17],AUC of dose-response viability curve [18],AUC of dose-response viability curve [19],AUC of dose-response viability curve [20],AUC of dose-response viability curve [21],AUC of dose-response viability curve [22],AUC of dose-response viability curve [23],AUC of dose-response viability curve [24]
Cc1nc(N)sc1-c1ccnc(Nc2ccc(N3CCOCC3)cc2)n1 [CYC116] + Cc1nc(Nc2ncc(C(=O)Nc3c(C)cccc3Cl)s2)cc(N2CCN(CCO)CC2)n1 [dasatinib],0.0981,0.00751,0.0118,0.074,0.0032,0.0722,0.0917,0.381,0.831 µM,0.332 µM,2.02 µM,1.02 µM,0.482 µM,0.137 µM,0.64 µM,6.52 µM,2,1.45,2.86,1.92,1.74,1.35,1.96,3.01
CN1CCN(c2ccc([N+](=O)[O-])c3no[n+]([O-])c23)CC1 + Cc1nc(Nc2ncc(C(=O)Nc3c(C)cccc3Cl)s2)cc(N2CCN(CCO)CC2)n1 [dasatinib],0.687,0.624,0.864,0.644,0.517,0.539,0.64,0.862,> 10 µM,> 10 µM,> 10 µM,> 10 µM,> 10 µM,> 10 µM,> 10 µM,> 10 µM,2.52,2.27,3.44,2.12,2.2,2.07,2.41,3.19
COc1ccc(-c2cc3c(C)nc(N)nc3n([C@H]3CC[C@H](OCCO)CC3)c2=O)cn1 + Cc1nc(Nc2ncc(C(=O)Nc3c(C)cccc3Cl)s2)cc(N2CCN(CCO)CC2)n1 [dasatinib],0.0663,0.00992,0.00781,0.0148,0.0021,0.0415,0.0233,0.161,0.0794 µM,0.0417 µM,0.129 µM,0.0946 µM,0.0402 µM,0.0154 µM,0.0621 µM,0.491 µM,1.37,1.12,1.67,1.37,1.15,1,1.35,2.3
NC(=O)Nc1cc(-c2cccc(F)c2)sc1C(=O)N[C@H]1CCCNC1 [AZD7762] + Cc1nc(Nc2ncc(C(=O)Nc3c(C)cccc3Cl)s2)cc(N2CCN(CCO)CC2)n1 [dasatinib],0.00591,0.00368,0.0113,0.0473,0.00579,0.0359,0.0198,0.0562,0.315 µM,0.0591 µM,0.0997 µM,0.0524 µM,0.025 µM,0.00585 µM,0.0596 µM,0.261 µM,1.56,1.19,2.04,1.32,0.834,0.645,1.26,2.29
C[C@@H]1CN(CC(=O)Nc2ccc3c(c2)Cc2cccc(-c4cc(=O)cc(N5CCOCC5)o4)c2S3)C[C@H](C)O1 + Cc1nc(Nc2ncc(C(=O)Nc3c(C)cccc3Cl)s2)cc(N2CCN(CCO)CC2)n1 [dasatinib],0.511,0.165,0.213,0.373,0.282,0.381,0.589,0.771,> 10 µM,3.79 µM,6.11 µM,5.52 µM,3.47 µM,4.11 µM,> 10 µM,> 10 µM,2.48,2.15,4.18,2.37,2.51,2.04,2.69,3.33
O=C(NCCCNc1nc(Nc2cccc(NC(=O)N3CCCC3)c2)ncc1I)c1cccs1 [BX-795] + Cc1nc(Nc2ncc(C(=O)Nc3c(C)cccc3Cl)s2)cc(N2CCN(CCO)CC2)n1 [dasatinib],0.334,0.0814,0.015,0.0706,0.00318,0.155,0.0986,0.74,4.41 µM,0.457 µM,3.02 µM,1.59 µM,0.695 µM,0.411 µM,1.78 µM,> 10 µM,2.44,1.77,3.15,2.08,1.72,1.74,2.09,3.06
CS(=O)(=O)N1CCN(Cc2cc3nc(-c4cccc5[nH]ncc45)nc(N4CCOCC4)c3s2)CC1 [GDC-0941] + Cc1nc(Nc2ncc(C(=O)Nc3c(C)cccc3Cl)s2)cc(N2CCN(CCO)CC2)n1 [dasatinib],0.235,0.0678,0.0152,0.111,0.00743,0.163,0.171,0.319,0.386 µM,0.111 µM,0.172 µM,0.234 µM,0.225 µM,0.0826 µM,0.302 µM,3.09 µM,1.96,1.48,1.71,1.73,1.81,1.55,1.93,2.56
Nc1nc(N)c2nc(-c3cccc(O)c3)c(-c3cccc(O)c3)nc2n1 [TG100-115] + Cc1nc(Nc2ncc(C(=O)Nc3c(C)cccc3Cl)s2)cc(N2CCN(CCO)CC2)n1 [dasatinib],0.637,0.308,1.03,0.463,0.681,0.368,0.739,0.882,> 10 µM,3.15 µM,> 10 µM,6.88 µM,> 10 µM,2.73 µM,> 10 µM,> 10 µM,2.52,2.12,3.95,2.32,2.76,2.04,2.71,3.23
CCc1cnn2c(NCc3ccc[n+]([O-])c3)cc(N3CCCC[C@H]3CCO)nc12 + Cc1nc(Nc2ncc(C(=O)Nc3c(C)cccc3Cl)s2)cc(N2CCN(CCO)CC2)n1 [dasatinib],0.0087,0.0412,0.0088,0.0174,0.00583,0.00901,0.169,0.00891,0.0115 µM,0.00708 µM,0.0151 µM,0.0167 µM,0.0036 µM,0.00394 µM,0.0141 µM,0.0119 µM,0.562,0.562,0.771,0.787,0.357,0.506,1.11,0.592
Cc1cc(Nc2nc(N[C@@H](C)c3ccc(F)cc3)c(C#N)cc2F)n[nH]1 [AZ 960] + Cc1nc(Nc2ncc(C(=O)Nc3c(C)cccc3Cl)s2)cc(N2CCN(CCO)CC2)n1 [dasatinib],0.127,0.00482,0.0082,0.0281,0.00499,0.0473,0.091,0.246,0.651 µM,0.146 µM,0.496 µM,0.442 µM,0.197 µM,0.123 µM,0.882 µM,0.987 µM,1.91,1.43,2.11,1.77,1.41,1.48,2.17,2.64
S=C(NCc1ccc2c(c1)OCO2)N1CCN(c2ncnc3c2oc2ccccc23)CC1 [Amuvatinib (MP-470)_R2] + Cc1nc(Nc2ncc(C(=O)Nc3c(C)cccc3Cl)s2)cc(N2CCN(CCO)CC2)n1 [dasatinib],0.0319,0.583,0.0367,0.219,0.0149,0.17,0.26,0.251,1.63 µM,> 10 µM,2.84 µM,2.55 µM,1.24 µM,1.23 µM,2.64 µM,3.37 µM,2.06,2.48,3.36,2.38,1.87,1.85,2.24,2.86
S=C(NCc1ccc2c(c1)OCO2)N1CCN(c2ncnc3c2oc2ccccc23)CC1 [Amuvatinib (MP-470)] + Cc1nc(Nc2ncc(C(=O)Nc3c(C)cccc3Cl)s2)cc(N2CCN(CCO)CC2)n1 [dasatinib],0.0599,0.57,0.0639,0.282,0.0475,0.156,0.263,0.245,1.97 µM,> 10 µM,2.68 µM,1.83 µM,1.31 µM,1.39 µM,2.92 µM,4.38 µM,2.03,2.31,3.23,2.2,1.94,1.9,2.39,3.02
CCc1cc2c(cc1N1CCC(N3CCOCC3)CC1)C(C)(C)c1[nH]c3cc(C#N)ccc3c1C2=O + Cc1nc(Nc2ncc(C(=O)Nc3c(C)cccc3Cl)s2)cc(N2CCN(CCO)CC2)n1 [dasatinib],0.675,0.311,0.0552,0.535,0.614,0.247,0.377,1.12,> 10 µM,2.34 µM,7.8 µM,> 10 µM,> 10 µM,0.659 µM,5.11 µM,> 10 µM,2.45,2.04,5.15,2.47,2.35,1.82,2.35,4.59
Cc1cc2c(C(C)C)c(O)c(O)c(C=O)c2c(O)c1-c1c(C)cc2c(C(C)C)c(O)c(O)c(C=O)c2c1O [AT101] + Cc1nc(Nc2ncc(C(=O)Nc3c(C)cccc3Cl)s2)cc(N2CCN(CCO)CC2)n1 [dasatinib],0.667,0.106,0.947,0.636,0.265,0.133,0.517,0.835,> 10 µM,3.35 µM,> 10 µM,> 10 µM,> 10 µM,1.85 µM,> 10 µM,> 10 µM,2.62,2.15,3.9,2.6,2.18,1.84,2.33,3.27
